Experimental data taken from patent US10899793B2, “Melanocortin ligands and methods of use thereof” (priority 2016, dated 2021).
Square brackets hold non-standard residues; d marks the D form. Peptide text beside a SMILES is read from it. Bip = N[C@@H](Cc1ccc(-c2ccccc2)cc1)C(=O)O; dPhe(4-I) = N[C@H](Cc1ccc(I)cc1)C(=O)O; 2Nal = N[C@@H](Cc1ccc2ccccc2c1)C(=O)O; d2Nal = N[C@H](Cc1ccc2ccccc2c1)C(=O)O; Bta = N[C@@H](Cc1csc2ccccc12)C(=O)O; Tic = O=C(O)[C@@H]1Cc2ccccc2CN1

Experiments:
mMC3R [1] = biological target: T1, mMC3R (Mus musculus, UniProt P33033); settings: Table 1; Schild analysis, pA2 = -Log(Ki); Full Agonist = full dose-response, No Activity = no shift in EC50
mMC4R [2] = biological target: T2, mMC4R (Mus musculus, UniProt P56450); settings: for mMC4R Antagonist pA2 ± SEM: Table 1, Schild analysis, pA2 = -Log(Ki)
mMC4R [3] = biological target: T2, mMC4R; assay: AlphaScreen cAMP agonist assay at mMC4R; settings: read-out: mMC4R Agonist, percent of the NDP-MSH maximal positive control
mMC3R [4] = biological target: T1, mMC3R; assay: AlphaScreen cAMP agonist assay at mMC3R; settings: Table 1; @ 100 μM
mMC5R = mMC5R (Mus musculus, UniProt P41149); assay: AlphaScreen cAMP agonist assay at mMC5R; settings: read-out: percent of the NDP-MSH maximal positive control, Table 2
Chain of mMC5R (P41149 whole entry): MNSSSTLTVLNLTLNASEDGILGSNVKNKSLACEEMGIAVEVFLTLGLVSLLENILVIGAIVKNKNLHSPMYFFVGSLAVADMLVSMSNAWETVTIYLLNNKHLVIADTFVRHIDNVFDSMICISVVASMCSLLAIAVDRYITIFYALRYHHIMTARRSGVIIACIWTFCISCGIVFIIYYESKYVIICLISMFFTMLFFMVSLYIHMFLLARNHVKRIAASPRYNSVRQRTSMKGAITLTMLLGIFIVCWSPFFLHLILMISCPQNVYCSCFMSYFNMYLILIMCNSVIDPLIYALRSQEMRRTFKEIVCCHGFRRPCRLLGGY

T1 sequence (P33033 whole entry): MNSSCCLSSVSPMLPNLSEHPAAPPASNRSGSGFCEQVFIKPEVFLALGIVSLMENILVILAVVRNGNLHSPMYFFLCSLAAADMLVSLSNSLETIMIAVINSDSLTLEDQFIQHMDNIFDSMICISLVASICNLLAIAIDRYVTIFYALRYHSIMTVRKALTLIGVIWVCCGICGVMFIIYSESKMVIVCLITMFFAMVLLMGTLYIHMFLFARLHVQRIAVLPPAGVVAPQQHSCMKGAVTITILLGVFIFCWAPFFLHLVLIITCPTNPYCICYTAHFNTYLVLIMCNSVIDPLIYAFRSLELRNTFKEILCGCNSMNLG
T2 sequence (P56450 whole entry): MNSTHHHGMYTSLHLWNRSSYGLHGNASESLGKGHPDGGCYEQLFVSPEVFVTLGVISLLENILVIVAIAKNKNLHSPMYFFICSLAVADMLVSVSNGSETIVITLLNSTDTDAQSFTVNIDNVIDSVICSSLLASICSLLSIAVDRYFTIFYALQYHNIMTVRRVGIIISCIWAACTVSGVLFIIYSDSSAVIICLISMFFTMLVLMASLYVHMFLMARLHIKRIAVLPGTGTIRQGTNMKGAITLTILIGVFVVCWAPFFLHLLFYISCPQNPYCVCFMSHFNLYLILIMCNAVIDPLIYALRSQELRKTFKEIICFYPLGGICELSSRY

Structure (SMILES)	mMC3R Antagonist pA2 ± SEM (mMC3R [1])	mMC4R Antagonist pA2 ± SEM (mMC4R [2])	activation at 100 µM (mMC4R [3]) [%]	mMC3R Agonist, percent of the NDP-MSH maximal positive control (mMC3R [4]) [% @ 100 μM]	activation at 100 µM (mMC5R) [%]	antagonist pA2 at the mMC4R (mMC4R [2])
CC(=O)N[C@@H](Cc1ccc(-c2ccccc2)cc1)C(=O)N[C@@H](CCCNC(=N)N)C(=O)N[C@H](Cc1ccc(I)cc1)C(=O)N[C@@H](Cc1csc2ccccc12)C(N)=O [SKY4-48-12, Ac-Bip-Arg-(pI)DPhe-3Bal-NH2] (Ac-[Bip]R[dPhe(4-I)][Bta]-NH2)	Full Agonist	No Activity	–	–	–	–
CC(=O)N[C@@H](Cc1csc2ccccc12)C(=O)N[C@@H](CCCNC(=N)N)C(=O)N[C@H](Cc1ccc(I)cc1)C(=O)N[C@@H](Cc1csc2ccccc12)C(N)=O [SKY4-48-13, Ac-3Bal-Arg-(pI)DPhe-3Bal-NH2] (Ac-[Bta]R[dPhe(4-I)][Bta]-NH2)	Full Agonist	–	–	–	–	–
CC(=O)N[C@@H](Cc1ccc(-c2ccccc2)cc1)C(=O)N[C@@H](CCCNC(=N)N)C(=O)N[C@H](Cc1ccc(I)cc1)C(=O)N1Cc2ccccc2C[C@H]1C(N)=O [SKY4-48-20, Ac-Bip-Arg-(pI)DPhe-Tic-NH2] (Ac-[Bip]R[dPhe(4-I)][Tic]-NH2)	Full Agonist	–	–	–	–	–
CC(=O)N1Cc2ccccc2C[C@H]1C(=O)N[C@@H](CCCNC(=N)N)C(=O)N[C@H](Cc1ccc(I)cc1)C(=O)N[C@@H](Cc1ccccc1)C(N)=O [SKY4-48-30, Ac-Tic-Arg-(pI)DPhe-Phe-NH2] (Ac-[Tic]R[dPhe(4-I)]F-NH2)	No Activity	No Activity	–	–	21	–
CC(=O)N[C@@H](Cc1ccc2ccccc2c1)C(=O)N[C@@H](CCCNC(=N)N)C(=O)N[C@H](Cc1ccc(I)cc1)C(=O)N[C@@H](Cc1ccccc1)C(N)=O [SKY4-48-32, Ac-Nal(2′)-Arg-(pI)DPhe-Phe-NH2] (Ac-[2Nal]R[dPhe(4-I)]F-NH2)	No Activity	No Activity	–	42	49	–
CC(=O)N[C@H](Cc1ccc2ccccc2c1)C(=O)N[C@@H](CCCNC(=N)N)C(=O)N[C@H](Cc1ccc(I)cc1)C(=O)N[C@@H](Cc1ccccc1)C(N)=O [SKY4-48-33, Ac-DNal(2′)-Arg-(pI)DPhe-Phe-NH2] (Ac-[d2Nal]R[dPhe(4-I)]F-NH2)	–	–	–	–	–	6.9
CC(=O)N[C@@H](CCCNC(=N)N)C(=O)N[C@@H](CCCNC(=N)N)C(=O)N[C@H](Cc1ccc(I)cc1)C(=O)N[C@@H](Cc1ccc2ccccc2c1)C(N)=O [SKY4-48-34, Ac-Arg-Arg-(pI)DPhe-Nal(2′)-NH2]	–	–	–	51	–	–
CC(=O)N[C@@H](Cc1c[nH]cn1)C(=O)N[C@@H](CCCNC(=N)N)C(=O)N[C@H](Cc1ccc(I)cc1)C(=O)N[C@@H](Cc1ccc2ccccc2c1)C(N)=O [SKY4-48-35, Ac-His-Arg-(pI)DPhe-Nal(2′)-NH2] (Ac-HR[dPhe(4-I)][2Nal]-NH2)	–	–	35	57	–	–
CC(=O)N[C@@H](Cc1ccc2ccccc2c1)C(=O)N[C@@H](CCCNC(=N)N)C(=O)N[C@H](Cc1ccc(I)cc1)C(=O)N[C@@H](Cc1ccc2ccccc2c1)C(N)=O [SKY4-48-40, Ac-Nal(2′)-Arg-(pI)DPhe-Nal(2′)-NH2] (Ac-[2Nal]R[dPhe(4-I)][2Nal]-NH2)	No Activity	No Activity	–	39	45	–
CC(=O)N[C@@H](Cc1ccc(-c2ccccc2)cc1)C(=O)N[C@@H](CCCNC(=N)N)C(=O)N[C@H](Cc1ccc(I)cc1)C(=O)N[C@H](Cc1ccc2ccccc2c1)C(N)=O [SKY4-48-44, Ac-Bip-Arg-(pI)DPhe-DNal(2′)-NH2] (Ac-[Bip]R[dPhe(4-I)][d2Nal]-NH2)	No Activity	No Activity	–	32	55	–
CC(=O)N[C@H](Cc1ccc2ccccc2c1)C(=O)N[C@@H](CCCNC(=N)N)C(=O)N[C@H](Cc1ccc(I)cc1)C(=O)N[C@@H](Cc1ccc(-c2ccccc2)cc1)C(N)=O [SKY5-146-2, Ac-DNal(2′)-Arg-(pI)DPhe-Bip-NH2] (Ac-[d2Nal]R[dPhe(4-I)][Bip]-NH2)	–	–	42	30	–	6.6
CC(=O)N[C@@H](Cc1csc2ccccc12)C(=O)N[C@@H](CCCNC(=N)N)C(=O)N[C@H](Cc1ccc(I)cc1)C(=O)N[C@@H](Cc1ccccc1)C(N)=O [SKY5-146-4, Ac-3Bal-Arg-(pI)DPhe-Phe-NH2] (Ac-[Bta]R[dPhe(4-I)]F-NH2)	No Activity	No Activity	–	37	35	–
CC(=O)N1Cc2ccccc2C[C@H]1C(=O)N[C@@H](CCCNC(=N)N)C(=O)N[C@H](Cc1ccc(I)cc1)C(=O)N1Cc2ccccc2C[C@H]1C(N)=O [SKY6-24-1, Ac-Tic-Arg-(pI)DPhe-Tic-NH2] (Ac-[Tic]R[dPhe(4-I)][Tic]-NH2)	Full Agonist	–	36	–	–	–

The next lines start with results.

mMC3R Antagonist pA2 ± SEM (mMC3R [1])	mMC4R Antagonist pA2 ± SEM (mMC4R [2])	activation at 100 µM (mMC4R [3]) [%]	mMC3R Agonist, percent of the NDP-MSH maximal positive control (mMC3R [4]) [% @ 100 μM]	activation at 100 µM (mMC5R) [%]	Structure (SMILES)	antagonist pA2 at the mMC4R (mMC4R [2])
No Activity	No Activity	24	–	–	CC(=O)N[C@@H](Cc1ccc(-c2ccccc2)cc1)C(=O)N[C@@H](CCCNC(=N)N)C(=O)N[C@H](Cc1ccc(I)cc1)C(=O)N[C@@H](Cc1ccc(-c2ccccc2)cc1)C(N)=O [SKY4-48-4, Ac-Bip-Arg-(pI)DPhe-Bip-NH2] (Ac-[Bip]R[dPhe(4-I)][Bip]-NH2)	–
Full Agonist	Full Agonist	–	–	–	CC(=O)N[C@@H](Cc1ccc2ccccc2c1)C(=O)N[C@@H](CCCNC(=N)N)C(=O)N[C@H](Cc1ccc(I)cc1)C(=O)N[C@@H](Cc1ccc(-c2ccccc2)cc1)C(N)=O [SKY4-48-8, Ac-Nal(2′)-Arg-(pI)DPhe-Bip-NH2] (Ac-[2Nal]R[dPhe(4-I)][Bip]-NH2)	–
Full Agonist	–	–	–	–	CC(=O)N[C@@H](Cc1ccc2ccccc2c1)C(=O)N[C@@H](CCCNC(=N)N)C(=O)N[C@H](Cc1ccc(I)cc1)C(=O)N[C@@H](Cc1csc2ccccc12)C(N)=O [SKY4-48-16, Ac-Nal(2′)-Arg-(pI)DPhe-3Bal-NH2] (Ac-[2Nal]R[dPhe(4-I)][Bta]-NH2)	–
Full Agonist	–	45	–	–	CC(=O)N[C@H](Cc1ccc2ccccc2c1)C(=O)N[C@@H](CCCNC(=N)N)C(=O)N[C@H](Cc1ccc(I)cc1)C(=O)N[C@@H](Cc1csc2ccccc12)C(N)=O [SKY4-48-17, Ac-DNal(2′)-Arg-(pI)DPhe-3Bal-NH2] (Ac-[d2Nal]R[dPhe(4-I)][Bta]-NH2)	–
Full Agonist	–	37	–	–	CC(=O)N[C@@H](Cc1csc2ccccc12)C(=O)N[C@@H](CCCNC(=N)N)C(=O)N[C@H](Cc1ccc(I)cc1)C(=O)N1Cc2ccccc2C[C@H]1C(N)=O [SKY4-48-21, Ac-3Bal-Arg-(pI)DPhe-Tic-NH2] (Ac-[Bta]R[dPhe(4-I)][Tic]-NH2)	–
Full Agonist	–	33	–	–	CC(=O)N[C@@H](Cc1ccc2ccccc2c1)C(=O)N[C@@H](CCCNC(=N)N)C(=O)N[C@H](Cc1ccc(I)cc1)C(=O)N1Cc2ccccc2C[C@H]1C(N)=O [SKY4-48-24, Ac-Nal(2′)-Arg-(pI)DPhe-Tic-NH2] (Ac-[2Nal]R[dPhe(4-I)][Tic]-NH2)	–
No Activity	–	–	77	69	CC(=O)N[C@@H](Cc1ccc(-c2ccccc2)cc1)C(=O)N[C@@H](CCCNC(=N)N)C(=O)N[C@H](Cc1ccc(I)cc1)C(=O)N[C@@H](Cc1ccccc1)C(N)=O [SKY4-48-28, Ac-Bip-Arg-(pI)DPhe-Phe-NH2] (Ac-[Bip]R[dPhe(4-I)]F-NH2)	–
No Activity	No Activity	–	50	52	CC(=O)N[C@@H](Cc1ccccc1)C(=O)N[C@@H](CCCNC(=N)N)C(=O)N[C@H](Cc1ccc(I)cc1)C(=O)N[C@@H](Cc1ccccc1)C(N)=O [SKY4-48-31, Ac-Phe-Arg-(pI)DPhe-Phe-NH2] (Ac-FR[dPhe(4-I)]F-NH2)	–
No Activity	No Activity	–	–	50	CC(=O)N[C@@H](Cc1csc2ccccc12)C(=O)N[C@@H](CCCNC(=N)N)C(=O)N[C@H](Cc1ccc(I)cc1)C(=O)N[C@@H](Cc1ccc2ccccc2c1)C(N)=O [SKY4-48-37, Ac-3Bal-Arg-(pI)DPhe-Nal(2′)-NH2] (Ac-[Bta]R[dPhe(4-I)][2Nal]-NH2)	–
No Activity	–	–	44	61	CC(=O)N[C@@H](Cc1ccccc1)C(=O)N[C@@H](CCCNC(=N)N)C(=O)N[C@H](Cc1ccc(I)cc1)C(=O)N[C@@H](Cc1ccc2ccccc2c1)C(N)=O [SKY4-48-39, Ac-Phe-Arg-(pI)DPhe-Nal(2′)-NH2] (Ac-FR[dPhe(4-I)][2Nal]-NH2)	–
No Activity	–	–	22	39	CC(=O)N[C@@H](Cc1ccccc1)C(=O)N[C@@H](CCCNC(=N)N)C(=O)N[C@H](Cc1ccc(I)cc1)C(=O)N[C@H](Cc1ccc2ccccc2c1)C(N)=O [SKY4-48-47, Ac-Phe-Arg-(pI)DPhe-DNal(2′)-NH2] (Ac-FR[dPhe(4-I)][d2Nal]-NH2)	–
Full Agonist	–	–	–	–	CC(=O)N[C@@H](Cc1c[nH]cn1)C(=O)N[C@@H](CCCNC(=N)N)C(=O)N[C@H](Cc1ccc(I)cc1)C(=O)N[C@@H](Cc1ccccc1)C(N)=O [SKY5-146-3, Ac-His-Arg-(pI)DPhe-Phe-NH2] (Ac-HR[dPhe(4-I)]F-NH2)	–
